# Reference: patent US9518018B2, “3-alkoxy, thioalkyl and amino-4-amino-6-(substituted)picolinates and their use as herbicides” (Dow AgroSciences LLC, priority 2011, dated 2016)
# Legend:
# Assay in all cases: In-water applied herbicidal activity in transplanted paddy rice
# Type in all cases: in vivo
# [1] = system: ECHCG = Echinochloa crus-galli (L.) P.BEAUV. (barnyardgrass)
# Procedure: (§1) Weed seeds or nutlets of the desired test plant species were planted in puddled soil (mud) prepared by mixing a non-sterilized mineral soil (28 percent silt, 18 percent clay, and 54 percent sand, with a pH of about 7.3 to 7.8 and an organic matter content of about 1.0 percent) and water at a ratio of 100 kilograms (kg) of soil to 19 liters (L) of water. The prepared mud was dispensed in 250 mL aliquots into 480 mL non-perforated plastic pots with a surface area of 86.59 cm^2 leaving a headspace of 2.5 to 3 cm in each pot. Rice seeds were planted in Sun Gro MetroMix 306 planting mixture, which typically has a pH of 6.0 to 6.8 and an organic matter content of about 30 percent, in plastic plug trays. Seedlings at the second or third leaf stage of growth were transplanted into 650 mL of mud contained in 960 mL non-perforated plastic pots with a surface area of 86.59 cm^2 four days prior to herbicide application. The paddy was created by filling the 2.5 to 3 cm headspace of the pots with water. When required to ensure good germination and healthy plants, a fungicide treatment and/or other chemical or physical treatment was applied. The plants were grown for 4-14 d in a greenhouse with an approximate 14-h photoperiod which was maintained at about 29° C. during the day and 26° C. during the night. Nutrients were added as Osmocote (17:6:10, Nitrogen:Phosphorus:Potassium (N:P:K)+minor nutrients) at 2 grams (g) per cup. Water was added on a regular basis to maintain the paddy flood, and supplemental lighting was provided with overhead metal halide 1000-Watt lamps as necessary. The plants were employed for testing when they reached the second or third true leaf stage. Treatments consisted of compounds 45, 34, and 66. For technical grade compounds, a weighed amount, determined by the highest rate to be tested, was placed in an individual 120 mL glass vial and was dissolved in 20 mL of acetone to obtain concentrated stock solutions. […] The concentrated stock solutions obtained were diluted with 20 mL of an aqueous mixture containing 2.5% Agri-dex crop oil concentrate (v/v). Applications were made by injecting an appropriate amount of the stock solution into the aqueous layer of the paddy. Control plants were treated in the same manner with the solvent blank. All treated plant material received the same concentration of acetone and crop oil concentrate. The treated plants and control plants were placed in a greenhouse as described above and water was added as needed to maintain a paddy flood. After approximately 3 weeks, the condition of the test plants, compared with that of the untreated plants, was determined visually and scored on a scale of 0 to 100 percent where 0 corresponds to no injury and 100 corresponds to complete kill. By applying the well-accepted probit analysis as described by J. Berkson in Journal of the […], 48, 565 (1953) and by D. Finney in “Probit Analysis” Cambridge University Press (1952) or by plotting the mean data and fitting a logarithmic curve to the portion of the data where there was a dose response using Microsoft Excel®, the above data can be used to calculate GR50 and GR90 values, which are defined as growth reduction factors that correspond to the effective dose of herbicide required to kill or control 50 percent or 90 percent, respectively, of a target plant.
# [2] = system: CYPDI = Cyperus difformis L. (small-flower flatsedge)
# Procedure: as §1
# [3] = system: SCPJU = Scirpus juncoides ROXB. (Japanese bulrush)
# Procedure: as §1
# [4] = system: ORYSA = Oryza sativa ‘Wells’ (rice)
# Procedure: as §1
# [5] = system: ORYSA = Oryza sativa ‘M202’ (rice)
# Procedure: as §1
# [6] = system: MOOVA = Monochoria vaginalis (BURM.f.) C.PRESL ex KUNTH (monochoria)
# Procedure: as §1
# [7] = Table 7, dose to kill or control 50 percent, 21 days after application
# [8] = Table 7, dose to kill or control 90 percent, 21 days after application
smiles,measurement,setting,value
"COc1c(C(=O)O)nc(-c2ccc(Cl)c(OC)c2F)c(F)c1N [Compound 45, 4-amino-6-(4-chloro-2-fluoro-3-methoxyphenyl)-5-fluoro-3-methoxypicolinic acid]",Mean Visual Injury (%)-21 Days After Application ECHCG,"[1]; Table 7, 8.75 g ae/ha",0%
same,Mean Visual Injury (%)-21 Days After Application ECHCG,"[1]; Table 7, 17.5 g ae/ha",0%
same,Mean Visual Injury (%)-21 Days After Application ECHCG,"[1]; Table 7, 35 g ae/ha",30%
same,Mean Visual Injury (%)-21 Days After Application ECHCG,"[1]; Table 7, 70 g ae/ha",100%
same,Mean Visual Injury (%)-21 Days After Application ECHCG,"[1]; Table 7, 140 g ae/ha",100%
same,GR50 ECHCG,[1]; [7],38.4 g ae/ha
same,GR90 ECHCG,[1]; [8],66.8 g ae/ha
same,Mean Visual Injury (%)-21 Days After Application CYPDI,"[2]; Table 7, 8.75 g ae/ha",67%
same,Mean Visual Injury (%)-21 Days After Application CYPDI,"[2]; Table 7, 17.5 g ae/ha",100%
same,Mean Visual Injury (%)-21 Days After Application CYPDI,"[2]; Table 7, 35 g ae/ha",100%
same,Mean Visual Injury (%)-21 Days After Application CYPDI,"[2]; Table 7, 70 g ae/ha",100%
same,Mean Visual Injury (%)-21 Days After Application CYPDI,"[2]; Table 7, 140 g ae/ha",100%
same,GR50 CYPDI,[2]; [7],<8.75 g ae/ha
same,GR90 CYPDI,[2]; [8],14.2 g ae/ha
same,Mean Visual Injury (%)-21 Days After Application SCPJU,"[3]; Table 7, 8.75 g ae/ha",10%
same,Mean Visual Injury (%)-21 Days After Application SCPJU,"[3]; Table 7, 17.5 g ae/ha",63%
same,Mean Visual Injury (%)-21 Days After Application SCPJU,"[3]; Table 7, 35 g ae/ha",93%
same,Mean Visual Injury (%)-21 Days After Application SCPJU,"[3]; Table 7, 70 g ae/ha",100%
same,Mean Visual Injury (%)-21 Days After Application SCPJU,"[3]; Table 7, 140 g ae/ha",100%
same,GR50 SCPJU,[3]; [7],16.8 g ae/ha
same,GR90 SCPJU,[3]; [8],42.4 g ae/ha
same,Mean Visual Injury (%)-21 Days After Application ORYSA ‘Wells’,"[4]; Table 7, 8.75 g ae/ha",0%
same,Mean Visual Injury (%)-21 Days After Application ORYSA ‘Wells’,"[4]; Table 7, 17.5 g ae/ha",0%
same,Mean Visual Injury (%)-21 Days After Application ORYSA ‘Wells’,"[4]; Table 7, 35 g ae/ha",0%
same,Mean Visual Injury (%)-21 Days After Application ORYSA ‘Wells’,"[4]; Table 7, 70 g ae/ha",0%
same,Mean Visual Injury (%)-21 Days After Application ORYSA ‘Wells’,"[4]; Table 7, 140 g ae/ha",7%
same,GR50 ORYSA ‘Wells’,[4]; [7],>140 g ae/ha
same,GR90 ORYSA ‘Wells’,[4]; [8],>140 g ae/ha
same,Mean Visual Injury (%)-21 Days After Application ORYSA ‘M202’,"[5]; Table 7, 8.75 g ae/ha",0%
same,Mean Visual Injury (%)-21 Days After Application ORYSA ‘M202’,"[5]; Table 7, 17.5 g ae/ha",0%
same,Mean Visual Injury (%)-21 Days After Application ORYSA ‘M202’,"[5]; Table 7, 35 g ae/ha",0%
same,Mean Visual Injury (%)-21 Days After Application ORYSA ‘M202’,"[5]; Table 7, 70 g ae/ha",0%
same,Mean Visual Injury (%)-21 Days After Application ORYSA ‘M202’,"[5]; Table 7, 140 g ae/ha",12%
same,GR50 ORYSA ‘M202’,[5]; [7],>140 g ae/ha
same,GR90 ORYSA ‘M202’,[5]; [8],>140 g ae/ha
same,Mean Visual Injury (%)-21 Days After Application MOOVA,"[6]; Table 7, 8.75 g ae/ha",100%
same,Mean Visual Injury (%)-21 Days After Application MOOVA,"[6]; Table 7, 17.5 g ae/ha",100%
same,Mean Visual Injury (%)-21 Days After Application MOOVA,"[6]; Table 7, 35 g ae/ha",100%
same,Mean Visual Injury (%)-21 Days After Application MOOVA,"[6]; Table 7, 70 g ae/ha",100%
same,Mean Visual Injury (%)-21 Days After Application MOOVA,"[6]; Table 7, 140 g ae/ha",100%
same,GR50 MOOVA,[6]; [7],<8.75 g ae/ha
same,GR90 MOOVA,[6]; [8],<8.75 g ae/ha
